Data published in patent US5045566A, “Novel imidate insecticides” (ICI Americas Inc., priority 1989, dated 1991).

How the values were obtained:
Format in all cases: in vivo
[1] = system: Black Bean Aphid [Aphis fabae (Scop.)]; assay: Black bean aphid spray test on nasturtium (BBA), 48 hours; conditions: percent of test compound in sprayed solution
Method in brief: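 LC50, given as percent test compound in the sprayed liquid, was calculated from dosage-mortality curves using concentrations from 0.05% downward. Sprays in 50:50 acetone-water went to runoff on ~5 cm nasturtiums carrying 25-50 aphids of mixed ages, one day after infestation. Deaths were counted 48 h later under greenhouse conditions.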

[2] = system: Tobacco Budworm [Heliothis virescens (Fabricius)] eggs; assay: Tobacco budworm eggs (TBW-E); conditions: percent in solution; 2-day old eggs
Method in brief: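 2-day eggs on paper towel, acetone dip, 0.1% and below; petri dish with larval diet, 78° F. Mortality read after control hatch and larval feeding. LC50 = % compound in solution, from dose-mortality curve.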

[3] = system: Housefly [Musca domestica]; assay: Housefly contact mortality in dishes (HF), 48 hours; conditions: μg of test compound per 25 female flies
Method in brief: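 Acetone solutions (with 0.01% peanut oil) dried onto dish bottoms, then 25 female flies, 1-2 days old, caged over the residue with sugar water. Mortality scored at 48 hours; LC50 from dosage-mortality curves, in μg per 25 female flies, top level 100 μg.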

[4] = system: Aster Leafhopper [Macrosteles fascifrens (Stal)]; assay: Aster leafhopper on dipped oat seedlings (LH), 48 hours; conditions: percent in solution, adults/nymphs
Description: The compounds in Tables 1 and 2 above were tested for insecticidal activity using the following testing procedures. LC50 values, based on the results of these tests and calculated according to dosage-mortality curves, are expressed in Table 3.
Aster Leafhopper [Macrosteles fascifrens (Stal)]
Oat seedlings (Avena sp) were grown in a commercial potting soil in cups. When the plants were approximately 10 cm tall they were thinned to three plants per cup and dipped for 2-3 seconds in 50-50 acetone-water solutions of the test compounds. When the plants had dried, a clear plastic tube was placed over them and the bottom end pressed into the cup. Ten aster leafhopper adults/nymphs were then placed in each tube and the tops of the tubes covered with white organdy cloth. Mortality counts were made after 48 hours. Test concentrations ranged from 0.05% down to that at which 50% mortality occurred. The LC50 values are expressed below in Table 3 under the heading "LH" in terms of the percent of the test compound in the solution.

[5] = system: Cabbage Looper [Trichoplusia ni (Hubner)]; assay: Cabbage looper leaf dip (CL), 3-5 days; conditions: percent in solution, second-instar larvae
Method in brief: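 LC50 values, given as percent test compound in solution, were calculated from dosage-mortality curves. Squash cotyledons were immersed 2-3 s in acetone-water (50-50) dilutions starting at 0.1%, dried on a screen, then infested with five second-instar larvae. Mortality was read 3-5 days on.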

[6] = system: Maize weevil [Sitophilus zeamais (Motschulsky)]; assay: Maize weevil on dipped corn seeds (MW), 48 hours; conditions: percent in solution, adult weevils
Method in brief: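 LC50, given as percent of compound in dipping solution, comes from dosage-mortality curves over concentrations descending from 0.01%. Four corn seeds soaked 2-3 s in 50:50 acetone:water solution were dried and held with 10 adult weevils, about 25° C, mortality read after 48 h.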

Structure (SMILES)	LC50 BBA [1] [%]	LC50 TBW E (eggs) [2] [%]	LC50 HF [3] [µg]	LC50 LH [4] [%]	LC50 CL [5] [%]	LC50 MW [6] [%]
CC(C)(C)C(=Nc1ccc(Cl)c(Cl)c1)OCc1cccc(Oc2ccccc2)c1 [Compound 25]	> 0.1	> 0.1	> 100	> 0.05	0.01	> 0.01
CC(C)C(=Nc1ccccc1)OCc1cccc(Oc2ccccc2)c1 [Compound 43]	0.001	0.05	7	> 0.05	0.018	> 0.01
Fc1ccc(N=C(OCc2cccc(Oc3ccccc3)c2)C(F)F)cc1 [Compound 50]	0.01	> 0.05	43	> 0.05	0.02	> 0.01
CC(C)C(=Nc1ccccc1C(F)(F)F)OCc1cccc(Oc2ccccc2)c1 [Compound 72]	> 0.05	> 0.1	> 100	> 0.05	0.08	> 0.01
CCS(=O)(=O)c1ccc(N=C(OCc2cccc(Oc3ccccc3)c2)C(C)C)cc1Cl [Compound 112]	0.05	> 0.1	> 100	> 0.05	0.025	> 0.01
Fc1ccc(N=C(OCc2cccc(Oc3ccccc3)c2)C(F)(F)C(F)(F)F)cc1Cl [Compound 117]	> 0.05	> 0.1	55	0.0003	0.006	> 0.01
CC(C)C(=Nc1ccc(F)c(Cl)c1)OCc1cccc(Oc2ccccc2F)c1 [Compound 119]	> 0.05	0.048	27	0.0008	0.0007	> 0.01
CC1(C)C(C(=Nc2ccc(F)c(Cl)c2)OCc2cccc(Oc3ccccc3)c2)C1(C)C [Compound 124]	> 0.05	> 0.1	17	> 0.05	0.01	> 0.01
CC(C)C(=Nc1cccc(Br)c1)OCc1cccc(Oc2ccccc2)c1 [Compound 128]	0.001	0.037	4.5	0.003	0.005	> 0.01
CC(C)C(=Nc1ccccc1Br)OCc1cccc(Oc2ccccc2)c1 [Compound 132]	0.0025	> 0.1	65	> 0.05	0.025	> 0.01
CSc1ccc(N=C(OCc2cccc(Oc3ccccc3)c2)C(C)C)cc1 [Compound 142]	0.001	0.1	15	> 0.05	0.005	> 0.01
COc1cccc(N=C(OCc2cccc(Oc3ccccc3)c2)C(C)C)c1 [Compound 143]	0.002	< 0.1	10	0.006	0.002	> 0.01
COC(=O)c1ccc(N=C(OCc2cccc(Oc3ccccc3)c2)C(C)C)cc1 [Compound 151]	0.006	> 0.1	38	> 0.05	0.009	> 0.01
CC(C)C(=Nc1ccc(C(C)(C)C)cc1)OCc1cccc(Oc2ccccc2)c1 [Compound 153]	0.003	0.1	> 100	0.0005	0.004	> 0.01
Cc1cccc(N=C(OCc2cccc(Oc3ccccc3)c2)C(C)C)c1 [Compound 155]	0.001	0.06	9	> 0.05	0.004	> 0.01
Cc1ccc(N=C(OCc2cccc(Oc3ccccc3)c2)C(C)C)cc1 [Compound 156]	0.001	0.05	10	> 0.05	0.004	> 0.01
COc1ccc(N=C(OCc2cccc(Oc3ccccc3)c2)C(C)C)cc1 [Compound 160]	0.003	0.09	7	0.05	0.005	> 0.01
CC(C)C(=Nc1ccc(C#N)cc1)OCc1cccc(Oc2ccccc2)c1 [Compound 172]	> 0.05	0.04	5	> 0.05	0.002	> 0.01
c1ccc(Oc2cccc(COC(=Nc3ccc4c(c3)OCO4)C3CC3)c2)cc1 [Compound 177]	0.01	> 0.1	13	> 0.05	0.002	0.01
CCC(=Nc1ccc2c(c1)OCO2)OCc1cccc(Oc2ccccc2)c1 [Compound 178, N-(3,4-Methylenedioxyphenyl)-O-(3-phenoxybenzyl)propionimidate]	0.05	> 0.1	6	> 0.05	0.004	> 0.01
CC(C)C(=Nc1ccc2c(c1)OCCO2)OCc1cccc(Oc2ccccc2)c1 [Compound 179]	0.003	> 0.1	13	0.005	0.004	> 0.01
CC(C)C(=Nc1ccc(-c2ccccc2)cc1)OCc1cccc(Oc2ccccc2)c1 [Compound 186]	> 0.05	> 0.1	> 100	> 0.05	0.008	> 0.01
CC(C)C(=Nc1ccc(F)c(Cl)c1)OCc1cccc(Oc2ccc(F)c(F)c2)c1 [Compound 217]	0.001	0.015	8	> 0.05	0.00006	0.0084
CC(C)C(=Nc1ccc2c(c1)OCO2)OCc1cccc(Oc2ccc(Cl)cc2)c1 [Compound 240]	0.001	0.04	14	> 0.05	0.0003	> 0.01
CC(C)C(=Nc1cccc(I)c1)OCc1cccc(Oc2ccc(F)cc2)c1 [Compound 255]	0.003	0.075	16	0.0005	0.00017	> 0.01
CSc1ccc(Oc2cccc(COC(=Nc3ccc(F)c(Cl)c3)C(C)C)c2)cc1 [Compound 256]	0.03	0.1	> 100	> 0.05	0.007	> 0.01
CC(C)C(=Nc1ccc(F)cc1)OCc1cccc(Oc2ccc(Br)cc2)c1 [Compound 259]	0.006	0.05	15	> 0.05	0.0003	> 0.01
CC(C)C(=Nc1cccc([N+](=O)[O-])c1)OCc1cccc(Oc2ccc(Cl)cc2)c1 [Compound 271]	> 0.05	0.1	27	> 0.05	0.0004	> 0.01
CC(C)C(=Nc1ccc(F)c([N+](=O)[O-])c1)OCc1cccc(Oc2ccccc2)c1 [Compound 293]	> 0.05	> 0.1	19	> 0.05	0.0045	> 0.01
